# ChEMBL document CHEMBL5038632, “Discovery and Characterization of Potent Dual P-Glycoprotein and CYP3A4 Inhibitors: Design, Synthesis, Cryo-EM Analysis, and Biological Evaluations” (J Med Chem, 2022)
# Assays:
# MES-SA/Dx5 = experiment: Cytotoxicity in human MES-SA/Dx5 cells assessed as reduction in cell viability at 1.28 uM incubated for 3 days by MTT assay relative to control; type: toxicity, cell-based; details: mes-sa/dx5, 72 h, time 3 day
# Cytochrome P450 3A4 = Cytochrome P450 3A4 (Homo sapiens, UniProt P08684); experiment: Inhibition of CYP3A4 in human liver microsomes using IPA as substrate preincubated for 10 mins followed by NADPH generating system addition and measured after 20 mins
# MDR1 [1] = experiment: Apparent permeability across basolateral side to apical side in MDCKII-MDR1 cells at 1 uM by LC/MS/MS analysis; type: ADME, cell-based, Canis lupus familiaris; details: dog, MDCK-MDR1
# [2] = Efflux ratio of apparent permeability across apical to basolateral to basolateral to apical membrane membrane in MDCK1 at 1 uM; type: ADME, cell-based, Canis lupus familiaris; details: dog, MDCK
# MDR1 [3] = experiment: Efflux ratio of apparent permeability across apical to basolateral to basolateral to apical membrane in MDCKII-MDR1 at 1 uM; type: ADME, cell-based, Canis lupus familiaris; details: dog, MDCK-MDR1
# [4] = Efflux ratio of apparent permeability across apical to basolateral to basolateral to apical membrane membrane in MDCK1 at 1 uM in presence of valspodar; type: ADME, cell-based, Canis lupus familiaris; details: dog, MDCK, with valspodar (concentration not stated)
# MDR1 [5] = experiment: Efflux ratio of apparent permeability across apical to basolateral to basolateral to apical membrane membrane in MDCKII-MDR1at 1 uM in presence of valspodar; type: ADME, cell-based, Canis lupus familiaris; details: dog, MDCK-MDR1, with valspodar (concentration not stated)
# MDR1 [6] = experiment: Apparent permeability across apical to basolateral side in MDCKII-MDR1 cells at 3 uM by LC/MS/MS analysis; type: ADME, cell-based, Canis lupus familiaris; details: dog, MDCK-MDR1
# MDR1 [7] = experiment: Apparent permeability across basolateral side to apical side in MDCKII-MDR1 cells at 3 uM by LC/MS/MS analysis; type: ADME, cell-based, Canis lupus familiaris; details: dog, MDCK-MDR1
# [8] = Apparent permeability across basolateral side to apical side in MDCK1 cells at 3 uM by LC/MS/MS analysis; type: ADME, cell-based, Canis lupus familiaris; details: dog, MDCK
# [9] = Apparent permeability across apical to basolateral side in MDCK1 cells at 3 uM by LC/MS/MS analysis; type: ADME, cell-based, Canis lupus familiaris; details: dog, MDCK
# [10] = Cmax in CD-1 mouse at 20 mg/kg, po by LC-MS/MS analysis; type: ADME, organism-based; design: route oral, dose 20 mg/kg; details: in vivo
# [11] = Efflux ratio of apparent permeability across apical to basolateral to basolateral to apical membrane membrane in MDCK1 at 3 uM; type: ADME, cell-based, Canis lupus familiaris; details: dog, mdck1, 3 µM
# [12] = Efflux ratio of apparent permeability across apical to basolateral to basolateral to apical membrane membrane in MDCK1 at 3 uM in presence of valspodar; type: ADME, cell-based, Canis lupus familiaris; details: dog, MDCK, with valspodar (concentration not stated)
# MDR1 [13] = experiment: Efflux ratio of apparent permeability across apical to basolateral to basolateral to apical membrane membrane in MDCKII-MDR1 at 3 uM; type: ADME, cell-based, Canis lupus familiaris; details: dog, MDCK-MDR1
# MDR1 [14] = experiment: Efflux ratio of apparent permeability across apical to basolateral to basolateral to apical membrane membrane in MDCKII-MDR1at 3 uM in presence of valspodar; type: ADME, cell-based, Canis lupus familiaris; details: dog, MDCK-MDR1, with valspodar (concentration not stated)
# [15] = AUC (0 to t) in CD-1 mouse at 20 mg/kg, po 30 mins prior to 10 mg/kg, po docetaxel administration measured after 8 hrs by LC-MS/MS analysis; type: ADME, organism-based; design: route oral, dose 20 mg/kg, time 8.5 hrs; details: in vivo
# [16] = Cmax in CD-1 mouse at 20 mg/kg, po 30 mins prior to 10 mg/kg, po docetaxel administration measured after 8 hrs by LC-MS/MS analysis; type: ADME, organism-based; design: route oral, time 8.5 hrs, dose 20 mg/kg; details: in vivo
# [17] = Tmax in CD-1 mouse at 20 mg/kg, po 30 mins prior to 10 mg/kg, po docetaxel administration measured after 8 hrs by LC-MS/MS analysis; type: ADME, organism-based; details: in vivo, time 8.5 hrs
# [18] = Half life in CD-1 mouse at 20 mg/kg, po 30 mins prior to 10 mg/kg, po docetaxel administration measured after 8 hrs by LC-MS/MS analysis; type: ADME, organism-based; details: in vivo, time 8.5 hrs
# Sequence of Cytochrome P450 3A4 (P08684 whole entry): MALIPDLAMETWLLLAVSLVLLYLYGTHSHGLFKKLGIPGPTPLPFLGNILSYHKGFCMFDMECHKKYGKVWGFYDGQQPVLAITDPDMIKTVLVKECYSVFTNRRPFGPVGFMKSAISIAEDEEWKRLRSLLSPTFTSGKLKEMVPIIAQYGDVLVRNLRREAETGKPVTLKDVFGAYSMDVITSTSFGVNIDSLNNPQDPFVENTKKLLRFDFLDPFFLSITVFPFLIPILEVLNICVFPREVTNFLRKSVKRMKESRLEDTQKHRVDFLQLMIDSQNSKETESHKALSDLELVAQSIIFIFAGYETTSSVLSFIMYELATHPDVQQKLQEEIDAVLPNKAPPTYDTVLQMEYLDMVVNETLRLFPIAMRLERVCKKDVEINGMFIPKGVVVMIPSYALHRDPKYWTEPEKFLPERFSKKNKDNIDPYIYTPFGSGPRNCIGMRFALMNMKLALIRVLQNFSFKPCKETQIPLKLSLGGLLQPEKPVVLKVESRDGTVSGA
SMILES,Activity (MES-SA/Dx5) [%],IC50 (Cytochrome P450 3A4) [nM],also measured
COc1cc2c(cc1OC)CN(CCc1ccc(-n3nnc(-c4cc(OC)c(OC)cc4NC(=O)c4cc(=O)c5ccccc5o4)n3)cc1)CC2,6,> 9000,Papp B→A at 1 µM (MDR1 [1]): 0.0049 ×10⁻⁶ cm/s; efflux ratio at 1 µM [2]: 1.83; efflux ratio at 1 µM (MDR1 [3]): 5.74; efflux ratio at 1 µM [4]: 1.36; efflux ratio at 1 µM (MDR1 [5]): 1.73
COc1cc2c(cc1OC)CN(CCc1ccc(-n3nnc(-c4cc(OCCc5cccnc5)ccc4NC(=O)c4cc(=O)c5ccccc5o4)n3)cc1)CC2,1,726,
COc1cc2c(cc1OC)CN(CCc1ccc(-n3nnc(-c4cc(OC)c(OC)cc4NC(=O)c4ccc(-c5cccnc5)cc4)n3)cc1)CC2,0,> 9000,
COc1cc2c(cc1OC)CN(CCc1ccc(-n3nnc(-c4cc(Oc5ccncc5)ccc4NC(=O)c4cc(=O)c5ccccc5o4)n3)cc1)CC2,9,> 9000,
COc1cc2c(cc1OC)CN(CCc1ccc(-n3nnc(-c4cc(OCc5cccnc5)c(OC)cc4NC(=O)c4cc(=O)c5ccccc5o4)n3)cc1)CC2,36,> 9000,
COc1cc2c(cc1OC)CN(CCc1ccc(-n3nnc(-c4cc(OC)c(OC)cc4NC(=O)c4cc(=O)c5cc(-c6ccncc6)ccc5o4)n3)cc1)CC2,1,> 9000,
COc1cc(NC(=O)c2cc(=O)c3ccccc3o2)c(-c2nnn(-c3ccc(CCN4CCc5ccncc5C4)cc3)n2)cc1OC,1,1050,
COc1cc2c(cc1OC)CN(CCc1ccc(-n3nnc(-c4cc(OCc5ccncc5)ccc4NC(=O)c4cc(=O)c5ccccc5o4)n3)cc1)CC2,33,> 9000,
COc1cc2c(cc1OC)CN(CCc1ccc(-n3nnc(-c4cc(OC)c(OC)cc4NC(=O)c4cc(=O)c5cc(Br)ccc5o4)n3)cc1)CC2,30,> 9000,
COc1cc2c(cc1OC)CN(CCc1ccc(-n3nnc(-c4cc(OCc5cccnc5)ccc4NC(=O)c4cc(=O)c5ccccc5o4)n3)cc1)CC2,3,> 9000,
COc1cc(NC(=O)c2cc(=O)c3ccccc3o2)c(-c2nnn(-c3ccc(CCN4CCn5cncc5C4)cc3)n2)cc1OCc1ccccc1,13,2040,Papp A→B at 3 µM (MDR1 [6]): < 0.02 ×10⁻⁶ cm/s; Papp B→A at 3 µM (MDR1 [7]): < 0.02 ×10⁻⁶ cm/s
COc1cc2c(cc1OC)CN(CCc1ccc(-n3nnc(-c4cc(OC)c(OC)cc4NC(=O)c4cc(=O)c5cc(-n6ccnc6)ccc5o4)n3)cc1)CC2,6,3340,
COc1cc(NC(=O)c2cc(=O)c3ccccc3o2)c(-c2nnn(-c3ccc(CCN4CCc5cnccc5C4)cc3)n2)cc1OC,1,1070,Papp A→B at 3 µM (MDR1 [6]): < 0.02 ×10⁻⁶ cm/s; Papp B→A at 3 µM (MDR1 [7]): < 0.02 ×10⁻⁶ cm/s
COc1cc2c(cc1OC)CN(CCc1ccc(-n3nnc(-c4cc(OC)c(OC)cc4NC(=O)c4ccc(-n5ccnc5)cc4)n3)cc1)CC2,5,516,
COc1cc(NC(=O)c2cc(=O)c3ccccc3o2)c(-c2nnn(-c3ccc(CCN4CCc5ccc(-n6ccnc6)cc5C4)cc3)n2)cc1OC,1,397,
COc1cc2c(cc1OC)CN(CCc1ccc(-n3nnc(-c4cc(Oc5cccnc5)ccc4NC(=O)c4cc(=O)c5ccccc5o4)n3)cc1)CC2,2,1470,Papp B→A at 3 µM [8]: < 0.002 ×10⁻⁶ cm/s; Papp A→B at 3 µM [9]: 0.0093 ×10⁻⁶ cm/s; Cmax [10]: 3.4 nM; Papp A→B at 3 µM (MDR1 [6]): 0.0072 ×10⁻⁶ cm/s; Papp B→A at 3 µM (MDR1 [7]): 0.002 ×10⁻⁶ cm/s; Ratio [11]: < 0.22; efflux ratio at 3 µM [12]: 0.085; efflux ratio at 3 µM (MDR1 [13]): 0.277; efflux ratio at 3 µM (MDR1 [14]): 0.093; AUC(0-t) at 8.5 h [15]: 11.7 ng·h/mL; Cmax [16]: 2.46 ng/mL; Tmax [17]: 0.5 h; half-life [18]: 6.02 h
COc1cc(NC(=O)c2cnc3ccccc3c2)c(-c2nnn(-c3ccc(CCN4CCc5cnccc5C4)cc3)n2)cc1OCc1ccccc1,3,851,
COc1cc(NC(=O)c2cc(=O)c3ccccc3o2)c(-c2nnn(-c3ccc(CCN4CCc5cnccc5C4)cc3)n2)cc1OCc1ccccc1,3,1240,
COc1cc(NC(=O)c2cc(=O)c3ccccc3o2)c(-c2nnn(-c3ccc(CCN4CCn5cncc5C4)cc3)n2)cc1OC,6,149,
COc1cc2c(cc1OC)CN(CCc1ccc(-n3nnc(-c4cc(OCc5ccccc5)c(OC)cc4NC(=O)c4cc(=O)c5ccccc5o4)n3)cc1)CC2,30,> 9000,
COc1cc2c(cc1OC)CN(CCc1ccc(-n3nnc(-c4cc(OC)c(OC)cc4NC(=O)c4ccc(-c5ccncc5)cc4)n3)cc1)CC2,11,> 9000,
COc1cc(NC(=O)c2cc(=O)c3ccccc3o2)c(-c2nnn(-c3ccc(CCN4CCc5cc(-n6ccnc6)ccc5C4)cc3)n2)cc1OC,10,305,
CC(=O)N1CCN(c2ccc(OCC3COC(Cn4ccnc4)(c4ccc(Cl)cc4Cl)O3)cc2)CC1 (configuration not stated) [KETOCONAZOLE],39,,
